Source: US20130023534A1, “PYRAZOLYL-PYRIMIDINES AS KINASE INHIBITORS” (priority 2010, published 2013)

Molecular target: T1, RIPK2 (Homo sapiens, UniProt O43353)
T1 construct: Full length FLAG His tagged RIPK2 was purified from a Baculovirus expression system; FLAG (N); 6His (N); made in house; host or cells: Spodoptera frugiperda (Sf9) insect cells, baculovirus
Assay: Fluorescent polarization based binding assay at the ATP binding pocket of RIPK2
Settings: full length FLAG His tagged RIPK2; competition with fluorescently labeled ATP competitive ligand (5 nM); mean of a minimum of 2 experiments; read-out: mean pIC50 (converted)
Text: A fluorescent polarization based binding assay was developed to quantitate interaction of novel test compounds at the ATP binding pocket of RIPK2, by competition with a fluorescently labeled ATP competitive ligand. Full length FLAG His tagged RIPK2 was purified from a Baculovirus expression system and was used at a final assay concentration of twice the KDapparent. A fluorescent labeled ligand (5-({[2-({[3-({4-[(5-hydroxy-2-methylphenyl)amino]-2-pyrimidinyl}amino)phenyl]carbonyl}amino)ethyl]amino}carbonyl)-2-(6-hydroxy-3-oxo-3H-xanthen-9-yl)benzoic acid, prepared as described below) was used at a final assay concentration of 5 nM. Both the enzyme and ligand were prepared in solutions in 50 mM HEPES pH7.5, 150 mM NaCl, 10 mM MgCl2, 1 mM DTT, and 1 mM CHAPS. Test compounds were prepared in 100% DMSO and 100 nL was dispensed to individual wells of a multiwell plate. Next, 5 ul RIPK2 was added to the test compounds at twice the final assay concentration, and incubated at room temperature for 10 minutes. […] Finally, samples were read on an instrument capable of measuring fluorescent polarization. Test compound inhibition was expressed as percent (%) inhibition of internal assay controls.
For concentration response experiments, normalized data were fit and pIC50s determined using conventional techniques. […]

T1 sequence (O43353 whole entry): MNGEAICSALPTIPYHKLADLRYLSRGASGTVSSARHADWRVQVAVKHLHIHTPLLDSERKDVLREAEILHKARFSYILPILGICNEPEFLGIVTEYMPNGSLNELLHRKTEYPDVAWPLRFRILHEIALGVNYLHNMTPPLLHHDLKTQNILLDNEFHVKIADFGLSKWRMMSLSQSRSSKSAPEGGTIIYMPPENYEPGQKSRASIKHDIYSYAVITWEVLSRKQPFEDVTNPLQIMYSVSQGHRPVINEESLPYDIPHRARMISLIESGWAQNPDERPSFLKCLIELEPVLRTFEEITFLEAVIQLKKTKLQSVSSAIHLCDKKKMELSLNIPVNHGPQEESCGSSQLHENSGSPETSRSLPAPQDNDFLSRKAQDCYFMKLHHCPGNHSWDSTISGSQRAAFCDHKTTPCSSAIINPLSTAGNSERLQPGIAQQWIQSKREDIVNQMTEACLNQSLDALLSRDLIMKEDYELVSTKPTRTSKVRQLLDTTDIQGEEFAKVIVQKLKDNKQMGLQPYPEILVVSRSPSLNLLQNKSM

Row | Compound | IC50 [nM]
1 | COc1cc(Nc2nccc(Nc3[nH]nc(C)c3C)n2)cc(OC)c1OC [Example 1, N^4-(3,4-Dimethyl-1H-pyrazol-5-yl)-N^2-[3,4,5-tris(methyloxy)phenyl]-2,4-pyrimidinediamine] | 10
2 | COc1ccc(-n2nc(C(F)(F)F)cc2Nc2ccnc(Nc3ccc(OC)c(OC)c3)n2)cc1 [Example 21, N^2-[3,4-bis(methyloxy)phenyl]-N^4-[1-[4-(methyloxy)phenyl]-3-(trifluoromethyl)-1H-pyrazol-5-yl]-2,4-pyrimidinediamine] | 251
